System: Subjects With Active Crohn's Disease With Evidence of Mucosal Ulceration
Experiment: Study 3 - Fecal calprotectin levels
Format: in vivo, human
Conditions: 200 mg; week 10; LOCF
Source text: Double-Blind, Randomized, Placebo-Controlled, Multi-Centre Study to Investigate the Efficacy and Safety of Compound 1 in Subjects With Active Crohn's Disease With Evidence of Mucosal Ulceration.
This is a double-blind, randomized, placebo-controlled, multi-centre Phase 2 study to investigate the efficacy and safety of Compound 1 administered once daily for the treatment of active CD with evidence of mucosal ulceration. The pharmacokinetics (including a PK substudy) and pharmacodynamics of Compound 1 and metabolite in CD will also be characterised.
A total of 180 eligible subjects will be randomized to receive Compound 1 or placebo in addition to their stable background treatment (eg, corticosteroids, aminosalicylates, or CD-related antibiotics). The study will consist of 2 parts, with total treatment duration of 20 weeks. Randomization in Part 1 will be stratified according the subject's previous anti-TNF exposure/response, CRP level at Screening, and oral corticosteroid use at visit Day −1.
After the first 10 weeks of treatment in Part 1, patients will be re-randomized for Part 2 as shown in the diagram below and will be stratified according to the subject's clinical response, previous anti-TNF exposure/response, and oral corticosteroid use at visit Day -1.
Fecal calprotectin is a protein belonging to the S100 family and occurring in large amounts in neutrophil granulocytes, where it accounts for 5% of total proteins and 60% of cytoplasm proteins. When inflammatory processes occur, calprotectin is released due to the degranulation of neutrophil granulocytes.
In bowel inflammation, calprotectin may be detected in the stool. The fecal levels provide direct information about the inflammation and is determined using a Calprest® enzyme immunoassay diagnostic kit (Eurospital Spa—Via Flavia 122-34147 Trieste—Italy; ref 9031).

With `O=C(Nc1nc2cccc(-c3ccc(CN4CCS(=O)(=O)CC4)cc3)n2n1)C1CC1` [Compound 1, cyclopropanecarboxylic acid {5-[4-(1,1-dioxo-thiomorpholin-4-ylmethyl)-phenyl]-[1,2,4]triazolo[1,5-a]pyridin-2-yl}-amide] the “Fecal calprotectectin normalizing high to normal (<50 mg/kg), % subjects normalizing” value was 12%, the “Fecal calprotectectin normalizing high to normal (>250 mg/kg to ≤250 mg/kg), % subjects normalizing” value was 44% and the “Fecal calprotectin mean, % CFB” value was 73%. The “Fecal calprotectin mean, CFB” value was -86.7 mg/kg, the “Fecal calprotectin median, % CFB” value was −29% and the “Fecal calprotectin median, CFB” value was -75.5 mg/kg.

Source: patent US20180200257A1, “METHODS FOR THE TREATMENT OF INFLAMMATORY DISORDERS” (Galapagos NV, priority 2015, published 2018)
